Experimental data taken from US6048892A, “Ester compound pesticide containing thereof” (Sumitomo Chemical Company, Limited, priority 1999, dated 2000).

Columns and labels:
Type in all cases: in vivo
[1] = tested on: common mosquitoes (Culex pipiens pallens); test: Biological Test 8: knock-down of mosquitoes by mosquito-coil; conditions: 1.0 g of 0.3% mosquito-coil in 0.34 m^3 chamber; after 15 minutes
Protocol: Mosquito-coil containing the present compound in an amount of 0.3% was prepared according to the formulation example 10 for the present compounds. Ten female common mosquitoes (Culex pipiens pallens) were left in a glass chamber (70 cm×70 cm×70 cm: 0.34 m^3) and 1.0 g of 0.3% mosquito-coil having both ends lit was placed in the glass chamber. After 15 minutes, the rate of knocked-down mosquitoes was examined.

[2] = tested on: houseflies (Musca domestica); test: Biological Test 4: mortality of female houseflies low sensitive to pyrethroids, treated filter paper; conditions: 24 h
Protocol: (§1) Filter paper of 5.5 cm in diameter was laid in the bottom of a polyethylene cup (diameter: 5.5 cm). After 0.7 ml of a 500 ppm aqueous emulsion obtained by diluting each emulsifiable concentrate prepared according to the formulation example 1 was dropped on the filter paper and approximately 30 mg of sucrose as bait was uniformly scattered. Ten female houseflies (Musca domestica), which were low sensitive to pyrethroids, were left in the cup with a cover. After one day, the mortality was examined.

[3] = tested on: tobacco cutworm (Spodoptera litura); test: Biological Test 1: mortality of larvae on impregnated artificial bait; conditions: 144 h, read-out: mortality of the larvae
Protocol: Emulsifiable concentrates were prepared for each of the present compounds according to the formulation example 1. Thirteen grams of artificial bait for tobacco cutworm (Spodoptera litura) were placed in a polyethylene cup (diameter: 11 cm) and impregnated with 2 ml of the 500 ppm emulsion prepared by diluting the emulsifiable concentrates with water. Ten 4-instar larvae of Spodoptera litura were put in the polyethylene cup. After 6 days, the mortality of the larvae was examined.

[4] = tested on: southern corn rootworm (Diabrotica undecimpunctata howardi); test: Biological Test 3: mortality of hatched larvae and eggs; conditions: 192 h, read-out: mortality of the hatched larvae and eggs
Description: Filter paper of 5.5 cm in diameter was laid in the bottom of a polyethylene cup (diameter: 5.5 cm). […] After 8 days, the mortality of the hatched larvae and eggs was examined.

[5] = tested on: houseflies (Musca domestica); test: Biological Test 16: topical application of compound (1) with piperonyl butoxide, mortality; conditions: after 24 hours
Protocol: The combination rate of piperonyl butoxide to the present compound was 0, 2, 4, 8 and 16 times. The mixture was dissolved in acetone. The acetone solution (0.5 μL) was applied to 10 female houseflies (Musca domestica) at the back thoracic region. After 24 hours, the number of dead insects was observed (2 repetition) and mortality was calculated.

[6] = tested on: webbing clothes moth (Tineola bisselliella); test: Biological Test 12: topical application to larvae of webbing clothes moth, mortality and fabric damage
Protocol: Each of the present compounds diluted with acetone to a predetermined concentration was applied to ten middle instar larvae of webbing clothes moth (Tineola bisselliella) at the central part of the back so as to give the active ingredient in a dose of 3 μg/insect. A wool muslin fabric (2 cm×2 cm in size) was given to the webbing clothes moths as the food. After 7 days, the mortality and the degree of damage of the wool muslin fabric by the moths were examined (two replicate).

[7] = tested on: webbing clothes moth (Tineola bisselliella); test: Biological Test 14: treated filter paper in cardboard box, percent moribund, fabric damage and persistence; conditions: 36 mg on filter paper
Protocol: A filter paper (3.2 cm×3.2 cm in size) treated with 36 mg of each of the present compounds and two wool muslin fabrics (25 cm×25 cm in size) were hung down at the upper part of a corrugated cardboard box (29 cm×29 cm×29 cm in size). After standing at 25° C. and a humidity of 60% for 1 week, two tea-strainer balls holding 7 to 10 middle instar larvae of webbing clothes moth (Tineola bisselliella) and one piece of wool muslin cloth (2 cm×2 cm in size) were hung down at the upper part of the box. The box was closed with a lid. After one week, the box was opened, and the percent moribund and the degree of damage of the wool muslin cloth by the moths were examined. The same tests was repeated 2 weeks, 3 weeks and 5 weeks after the treatment to examine the persistance of the present compound. The degree of damage was represented by "-" in no damage, "+" in slight damage, "++" in heavy damage and "+++" in severe damage.

[8] = tested on: brown planthopper (Nilaparvata lugens); test: Biological Test 2: mortality of larvae on dipped rice plant stalk; conditions: 144 h, read-out: mortality of the larvae
Protocol: A stalk of a rice plant was dipped for one minute in a 500 ppm aqueous emulsion obtained by diluting each emulsifiable concentrate of the present compounds prepared according to the formulation example 1. The rice plant stalk was air-dried and placed in a polyethylene cup (diameter: 5.5 cm) where filter paper (diameter: 5.5 cm) impregnated with 1 ml of water was put. Approximately 30 larvae of brown planthopper (Nilaparvata lugens) were put in the polyethylene cup. After 6 days, the mortality of the larvae was examined.

[9] = tested on: webbing clothes moth (Tineola bisselliella); test: Biological Test 13: volatile agent in cup, mortality and fabric damage; conditions: volatile agent (100 μg on filter paper), 950 cm^3 cup, 25° C., 1 week
Protocol: A wool muslin fabric (2 cm×2 cm in size) was placed on the bottom of a polyethylene cup (bottom diameter: 10 cm, opening part diameter: 12.5 cm, height: 9.5 cm, volume: 950 cm^3). Ten middle instar larvae of webbing clothes moth (Tineola bisselliella) were put in the cup and each of the volatile agents prepared according to the formulation example 14 was hung from the cap in the interior of the cup. After standing at 25° C. for 1 week, the cup was opened, and the mortality and the degree of damage of the wool muslin fabric by the moths were examined (two replicate).

[10] = tested on: German cockroaches (Blattella germanica); test: Biological Test 5: mortality of male German cockroaches low sensitive to pyrethroids, treated filter paper; conditions: 144 h
Protocol: as §1, with “Two male German cockroaches (Blattella germanica),” for “Ten female houseflies (Musca domestica),”, “six days,” for “one day,”

[11] = tested on: common mosquitoes (Culex pipiens pallens); test: Biological Test 6: mortality of last-instar mosquito larvae in water; conditions: 24 h, read-out: mortality of the common mosquitoes
Protocol: 0.7 ml of aqueous emulsion, obtained by diluting emulsifiable concentrate prepared for each of the present compounds according to the formulation example 1, was added to 100 ml of ion-exchanged water (concentration of active ingredient: 3.5 ppm). Twenty last-instar larvae of common mosquitoes (Culex pipiens pallens) were left in the water. After one day, the mortality of the common mosquitoes was examined.

Question: How did the “rate of knocked-down mosquitoes” value [1] turn out when `Cc1ccc(COC(=O)[C@@H]2[C@H](/C=C(\Cl)C(F)(F)F)C2(C)C)o1` (relative stereo) [Compound (1), 5-methyl-2-furfuryl (1RS,cis)-3-(Z-2-chloro-3,3,3-trifluoroprop-1-enyl)-2,2-dimethylcyclopropanecarboxylate] was run?
Answer: Its value is 100%.

Question: What about the mortality at 500 ppm [2] of the same compound?
Answer: Its mortality at 500 ppm is 100%.

Question: What about the mortality at 500 µg/mL [3] of the same compound?
Answer: The mortality at 500 µg/mL was 100%.

Question: And the mortality at 50 ppm [4]?
Answer: The mortality at 50 ppm was 100%.

Question: And the “Mortality (%)” value ([5]; compound (1) 0.5 μg/female, piperonyl butoxide 0)?
Answer: The value was 30%.

Question: What about the “Mortality (%)” value ([5]; compound (1) 0.5 + piperonyl butoxide 2.0 μg/female) of the same compound?
Answer: The value was 100%.

Question: And the “Mortality (%)” value ([5]; compound (1) 0.5 + piperonyl butoxide 4.0 μg/female)?
Answer: The value was 100%.

Question: And the “Mortality (%)” value ([5]; compound (1) 0.5 + piperonyl butoxide 8.0 μg/female)?
Answer: Its value is 100%.

Question: And the “degree of damage of the wool muslin fabric” value ([6]; 3 μg/insect, after 7 days)?
Answer: The value was “no damage”.

Question: And the mortality at 0.003 mg ([6]; Tineola bisselliella, 168 h)?
Answer: Its mortality at 0.003 mg is 100%.

Question: And the degree of damage ([7]; After 1 week)?
Answer: Its degree of damage is “-”.

Question: What about the degree of damage ([7]; After 2 weeks) of the same compound?
Answer: The degree of damage was “-”.

Question: What about the degree of damage ([7]; After 3 weeks) of the same compound?
Answer: Its degree of damage is “-”.

Question: What about the degree of damage ([7]; After 5 weeks) of the same compound?
Answer: Its degree of damage is “-”.

Question: And the mortality at 500 ppm [8]?
Answer: Its mortality at 500 ppm is no less than 90%.

Question: What about the “degree of damage of the wool muslin fabric” value [9] of the same compound?
Answer: The value was “no damage”.

Question: And the mortality ([9]; 10080 min)?
Answer: The mortality was 100%.

Question: And the mortality at 500 ppm [10]?
Answer: The mortality at 500 ppm was 100%.

Question: And the mortality at 3.5 ppm [11]?
Answer: The mortality at 3.5 ppm was no less than 90%.
